Source: patent US20240246940A1, “HETEROARYL DERIVATIVE COMPOUND AND USE THEREOF” (VORONOI INC., priority 2021, published 2024)

Experiments:
[1] = test system: HaCaT cells (EGFR expressing cell line); assay: HaCaT cell proliferation inhibitory activity (CellTiter-Glo, 72 hours); assay type: cell-based; details: Homo sapiens
Method in brief: (§1)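 Plate cells (HaCaT 3000/well, others 5000/well), then allow 24 h or 48 h before dosing, with the longer wait for SK-BR-3 and BT-474. Add compounds as 3-fold series, or 5-fold for N-87, at 11 concentrations each. Read viability luminescence, compute growth % against control and derive GI50.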

[2] = test system: SK-BR-3 cells (HER2 overexpressing cell line); assay: SK-BR-3 cell proliferation inhibitory activity (CellTiter-Glo, 120 hours); assay type: cell-based; details: Homo sapiens
Method in brief: as §1

Row | SMILES | GI50 [2] [nM] | GI50 [1] [nM]
1 | C=CC(=O)N1CCC(Oc2cc3c(Nc4cc(-c5cc(F)cnc5F)ccc4OC)ncnc3cc2OC)CC1 [Example 145, 1-(4-((4-((5-(2,5-difluoropyridin-3-yl)-2-methoxyphenyl)amino)-7-methoxy-quinazolin-6-yl)oxy)piperidin-1-yl)prop-2-en-1-one] | ≤ 150 | ≤ 150
2 | C=CC(=O)N1CCC(Oc2cc3c(Nc4cc(-c5ccc(F)cc5F)ccc4OC)ncnc3cc2OC)CC1C(F)(F)F (stereo not drawn) [Example 165, 1-(4-((4-((2′,4′-difluoro-4-methoxy-[1,1′-biphenyl]-3-yl)amino)-7-methoxy-quinazolin-6-yl)oxy)-2-(trifluoromethyl)piperidin-1-yl)prop-2-en-1-one] | > 1000 | 150 to 1000
3 | C=CC(=O)N1C2CCC1CC(Oc1cc3c(Nc4cc(-c5ccco5)ccc4OC)ncnc3cc1OC)C2 (stereo not drawn) [Example 166, 1-(3-((4-((5-(furan-2-yl)-2-methoxyphenyl)amino)-7-methoxy-quinazolin-6-yl)oxy)-8-azabicyclo [3.2.1]octan-8-yl)prop-2-en-1-one] | ≤ 150 | ≤ 150
4 | C=CC(=O)N1CC(Oc2cc3c(Nc4cc(-c5cccc(NC(=O)C6CC6)c5)ccc4OC)ncnc3cc2OC)C1 [Example 227, N-(3′-((6-((1-acryloylazetidin-3-yl)oxy)-7-methoxy-quinazolin-4-yl)amino)-4′-methoxy-[1,1′-biphenyl]-3-yl)cyclopropan-carboxamide] | 150 to 1000 | > 1000
5 | C=CC(=O)N1CC(Oc2cc3c(Nc4cc(-c5ccnc6c(NC(=O)C7CC7)snc56)ccc4OC)ncnc3cc2OC)C1 [Example 234, N-(7-(3-((6-((1-acryloylazetidin-3-yl)oxy)-7-methoxyquinazolin-4-yl)amino)-4-methoxyphenyl)isothiazolo[4,3-b]pyridin-3-yl)cyclopropancarboxamide] | 150 to 1000 | 150 to 1000
6 | C=CC(=O)N1CC(Oc2cc3c(Nc4cc(-c5cccc(NC(=O)N6C(=O)OC[C@H]6c6ccccc6)c5)ccc4OC)ncnc3cc2OC)C1 [Example 236, (R)-N-(3′-((6-((1-acryloylazetidin-3-yl)oxy)-7-methoxyquinazolin-4-yl)amino)-4′-methoxy-[1,1′-biphenyl]-3-yl)-2-oxo-4-phenyloxazolidin-3-carboxamide] | 150 to 1000 | > 1000
7 | C=CC(=O)N1CC(Oc2cc3c(Nc4cc(-c5cccc(NC(=O)N6C(=O)OC[C@@H]6c6ccccc6)c5)ccc4OC)ncnc3cc2OC)C1 [Example 237, (S)-N-(3′-((6-((1-acryloylazetidin-3-yl)oxy)-7-methoxyquinazolin-4-yl)amino)-4′-methoxy-[1,1′-biphenyl]-3-yl)-2-oxo-4-phenyloxazolidin-3-carboxamide] | 150 to 1000 | > 1000
8 | C=CC(=O)N1CC(Oc2cc3c(Nc4cc(-c5cccs5)ccc4OC4CCN(C)C4)ncnc3cc2OC)C1 (stereo not drawn) [Example 240, 1-(3-((7-methoxy-4-((2-((1-methylpyrrolidin-3-yl)oxy)-5-(thiophen-2-yl)phenyl)amino)quinazolin-6-yl)oxy)azetidin-1-yl)prop-2-en-1-one] | ≤ 150 | ≤ 150
9 | C=CC(=O)N1CC(Oc2cc3c(Nc4cc(-c5ccn6ncnc6c5)ccc4OC4CCN(C)C4)ncnc3cc2OC)C1 (stereo not drawn) [Example 242] | 150 to 1000 | ≤ 150
10 | C=CC(=O)N1CC(Oc2cc3c(Nc4cc(-c5cccs5)ccc4OC4CCOCC4)ncnc3cc2OC)C1 [Example 248, 1-(3-((7-methoxy-4-((2-((tetrahydro-2H-pyran-4-yl)oxy)-5-(thiophen-2-yl)phenyl)amino)quinazolin-6-yl)oxy)azetidin-1-yl)prop-2-en-1-one] | ≤ 150 | ≤ 150
11 | C=CC(=O)N1CCC(Oc2cc3c(Nc4cc(-c5cccs5)ccc4OC4CCN(C)C4)ncnc3cc2OC)CC1 (stereo not drawn) [Example 250, 1-(4-((7-methoxy-4-((2-((1-methylpyrrolidin-3-yl)oxy)-5-(thiophen-2-yl)phenyl)amino)quinazolin-6-yl)oxy)piperidin-1-yl)prop-2-en-1-one] | ≤ 150 | ≤ 150
12 | C=CC(=O)N1CCC(Oc2cc3c(Nc4cc(-c5cccs5)ccc4OC4CCOCC4)ncnc3cc2OC)CC1 [Example 257, 1-(4-((7-methoxy-4-((2-((tetrahydro-2H-pyran-4-yl)oxy)-5-(thiophen-2-yl)phenyl)amino)quinazolin-6-yl)oxy)piperidin-1-yl)prop-2-en-1-one] | 150 to 1000 | ≤ 150

The next lines start with results.

Row | GI50 [2] [nM] | SMILES | GI50 [1] [nM]
13 | 150 to 1000 | C=CC(=O)N1CCC(Oc2cc3c(Nc4cc(-c5ccc(F)nc5F)ccc4OC)ncnc3cc2OC)CC1 [Example 147, 1-(4-((4-((5-(2,6-difluoropyridin-3-yl)-2-methoxyphenyl)amino)-7-methoxy-quinazolin-6-yl)oxy)piperidin-1-yl)prop-2-en-1-one] | 150 to 1000
14 | ≤ 150 | C=CC(=O)N1CCC(Oc2cc3c(Nc4cc(-c5ccco5)ccc4OC)ncnc3cc2OC)C(C)C1 (stereo not drawn) [Example 148, 1-(4-((4-((5-(furan-2-yl)-2-methoxyphenyl)amino)-7-methoxy-quinazolin-6-yl)oxy)-3-methylpiperidin-1-yl)prop-2-en-1-one] | ≤ 150
15 | 150 to 1000 | C=CC(=O)N1CCC(Oc2cc3c(Nc4cc(-c5ccncc5)ccc4OC)ncnc3cc2OC)CC1 [Example 149, 1-(4-((7-methoxy-4-((2-methoxy-5-(pyridin-4-yl)phenyl)amino)quinazolin-6-yl)oxy)piperidin-1-yl)prop-2-en-1-one] | 150 to 1000
16 | > 1000 | C=CC(=O)N1CCCC(Oc2cc3c(Nc4cc(-c5ccco5)ccc4OC)ncnc3cc2OC)C1 (stereo not drawn) [Example 162, 1-(3-((4-((5-(furan-2-yl)-2-methoxyphenyl)amino)-7-methoxy-quinazolin-6-yl)oxy)piperidin-1-yl)prop-2-en-1-one] | 150 to 1000
17 | 150 to 1000 | C=CC(=O)N1CCC(Oc2cc3c(Nc4cc(-c5ccco5)ccc4OC)ncnc3cc2OC)CC1C(F)(F)F (stereo not drawn) [Example 164, 1-(4-((4-((5-(furan-2-yl)-2-methoxyphenyl)amino)-7-methoxy-quinazolin-6-yl)oxy)-2-(trifluoromethyl)piperidin-1-yl)prop-2-en-1-one] | ≤ 150
18 | 150 to 1000 | C=CC(=O)N1CCC(Oc2cc3c(Nc4cc(-c5cccc(N)c5)ccc4OC)ncnc3cc2OC)CC1 [Example 180, 1-(4-((4-((3′-amino-4-methoxy-[1,1′-biphenyl]-3-yl)amino)-7-methoxy-quinazolin-6-yl)oxy)piperidin-1-yl)prop-2-en-1-one] | > 1000
19 | ≤ 150 | C=CC(=O)N1CCC(Oc2cc3c(Nc4cc(-c5ccco5)ccc4OC)ncnc3cc2OCC)CC1 [Example 238, 1-(4-((7-ethoxy-4-((5-(furan-2-yl)-2-methoxyphenyl)amino)quinazolin-6-yl)oxy)piperidin-1-yl)prop-2-en-1-one] | ≤ 150
20 | ≤ 150 | C=CC(=O)N1CC(Oc2cc3c(Nc4cc(-c5ccco5)ccc4OC4CCN(C)C4)ncnc3cc2OC)C1 (stereo not drawn) [Example 241, 1-(3-((4-((5-(furan-2-yl)-2-((1-methylpyrrolidin-3-yl)oxy)phenyl)amino)-7-methoxyquinazolin-6-yl)oxy)azetidin-1-yl)prop-2en-1-one] | ≤ 150
21 | 150 to 1000 | C=CC(=O)N1CC(Oc2cc3c(Nc4cc(-c5ccco5)ccc4OC4CCOCC4)ncnc3cc2OC)C1 [Example 249, 1-(3-((4-((5-(furan-2-yl)-2-((tetrahydro-2H-pyran-4-yl)oxy)phenyl)amino)-7-methoxyquinazolin-6-yl)oxy)azetidin-1-yl)prop-2-en-1-one] | ≤ 150
22 | ≤ 150 | C=CC(=O)N1CCC(Oc2cc3c(Nc4cc(-c5ccco5)ccc4OC4CCN(C)C4)ncnc3cc2OC)CC1 (stereo not drawn) [Example 251, 1-(4-((4-((5-(furan-2-yl)-2-((1-methylpyrrolidin-3-yl)oxy)phenyl)amino)-7-methoxyquinazolin-6-yl)oxy)piperidin-1-yl)prop-2-en-1-one] | ≤ 150
23 | ≤ 150 | C=CC(=O)N1CCC(Oc2cc3c(Nc4cc(-c5ccco5)ccc4OC4CC4)ncnc3cc2OC)CC1 [Example 253, 1-(4-((4-((2-cyclopropoxy-5-(furan-2-yl)phenyl)amino)-7-methoxyquinazolin-6-yl)oxy)piperidin-1-yl)prop-2-en-1-one] | ≤ 150
24 | ≤ 150 | C=CC(=O)N1CCC(Oc2cc3c(Nc4cc(-c5ccco5)ccc4OC4COC4)ncnc3cc2OC)CC1 [Example 255, 1-(4-((4-((5-(furan-2-yl)-2-(oxetan-3-yloxy)phenyl)amino)-7-methoxyquinazolin-6-yl)oxy)piperidin-1-yl)prop-2-en-1-one] | ≤ 150
25 | 150 to 1000 | C=CC(=O)N1CCC(Oc2cc3c(Nc4cc(-c5ccco5)ccc4OC4CCOCC4)ncnc3cc2OC)CC1 [Example 258, 1-(4-((4-((5-(furan-2-yl)-2-((tetrahydro-2H-pyran-4-yl)oxy)phenyl)amino)-7-methoxyquinazolin-6-yl)oxy)piperidin-1-yl)prop-2-en-1-one] | ≤ 150
26 | ≤ 150 | C=CC(=O)N1CCC(Oc2cc3c(Nc4cc(-c5ccco5)ccc4OCCOC)ncnc3cc2OC)CC1 [Example 259, 1-(4-((4-((5-(furan-2-yl)-2-(2-methoxyethoxy)phenyl)amino)-7-methoxyquinazolin-6-yl)oxy)piperidin-1-yl)prop-2-en-1-one] | ≤ 150
27 | ≤ 150 | C=CC(=O)N1CCC(Nc2cc3c(Nc4cc(-c5ccco5)ccc4OC)ncnc3cc2OCCOC)CC1 [Example 262, 1-(4-((4-((5-(furan-2-yl)-2-methoxyphenyl)amino)-7-(2-methoxyethoxy)quinazolin-6-yl)amino)piperidin-1-yl)prop-2-en-1-one] | ≤ 150
